In patent US10722442B2, “Skin brightening composition comprising novel ginsenoside” (AMOREPACIFIC CORPORATION, priority 2018, dated 2020):

Columns and labels:
[1] = test system: Mel-Ab cell line; assay: Melanin production inhibition (Dooley's method); type: cell-based, C57BL/6; details: Mel-Ab cells, after 5 days, absorbance at 400 nm
[2] = test system: healthy adult subjects; assay: Human repeated insult patch tests (HRIPT), skin accumulated irritation; type: in vivo; parameters: key to reactivity (skin response, ICDRG criteria): −: Negative (no response); ±: Suspicious or slight erythema, or the like; +: Weak reactions (without vesicles), erythema, papules; ++: Severe reactions (with vesicles), erythema, papules, vesicles; +++: Strong reaction, bulla reaction; details: for Average reactivity: safe when less than 3
Protocol: Human repeated insult patch tests (HRIPT) were performed to confirm whether the novel ginsenoside GS #10, which is an example of the present disclosure, has a skin accumulated irritation and to calculate a concentration range that can be used on the skin.
Specifically, 15 healthy adult subjects were randomly selected, and the test composition containing 0.5 wt %, 1 wt %, and 3 wt % of the compound (the skin composition comprising an emulsifier, a stabilizer, purified water, etc. in addition to the compound) was added dropwise by 20 μl per chamber (IQ chamber, Epitest Ltd, Finland). After 24 hours from patching the upper right part of the back of a subject, it was replaced with the new patch. In this way, the skin reactions were examined before and after each patch while performing nine patches three times a week for a total of three weeks. The skin reactions were confirmed up to 48 hours after removing the final patch, and the average reactivity was obtained.
The skin response was determined according to the criteria of the International Contact Dermatitis Research Group (ICDRG). […] This means that the novel ginsenoside GS #10, which is an example of the present disclosure, has no skin accumulated irritation and can be used safely on the skin.

[3] = test system: SH-SY5Y cells; assay: Cytotoxicity, Cell Counting Kit (CCK)-8; type: cell-based; details: SH-SY5Y cells, 0.1, 1, 5, 10, 20, and 50 μM; up to 50 μM
Protocol: The cell growth in the presence of novel ginsenoside GS #10, which is an example of the present disclosure, was evaluated using Cell Counting Kit (CCK)-8, in order to exclude the possibility that ginsenosides may affect skin brightening efficacy through cytotoxic activity.
Specifically, the viability of SH-SY5Y cells was assessed using CCK-8 assay according to manufacturer's instructions (Dojindo, Md., USA). CCK-8, a cell viability detection reagent, was added to the cultured SH-SY5Y cells and incubated for 2 hours in a wet atmosphere. Then, absorbance was measured at 450 nm, and the cell viability was marked as a percentage (%) of the absolute optical density of each sample relative to the untreated sample. At this time, the concentration of the novel ginsenoside GS #10, which is an example of the present disclosure, contained in the medium in which the cells were cultured was 0.1, 1, 5, 10, 20, and 50 μM, respectively.

[4] = biological target: Mushroom-derived tyrosinase; assay: Inhibitory effect of tyrosinase activity; type: biochemical; details: L-tyrosine substrate, 20 minutes at 37° C., absorbance at 490 nm
Protocol: In order to compare the skin brightening effects of ginsenosides isolated from the ginseng seed extract, the inhibitory effect of the tyrosinase activity was evaluated as follows. Mushroom-derived tyrosinase and tyrosine were obtained from Sigma Chemical. […] Tyrosinase activity was assessed by measuring the absorbance at 490 nm using a microplate reader (Bio-Rad 3550, Richmond, Calif., U.S.A.) after an enzyme reaction for 20 minutes at 37° C.

CC1(C)C(=O)CC[C@@]2(C)C1[C@@H](O[C@H]1OC(CO)[C@H](O)C(O)C1O[C@H]1OC(CO)[C@H](O)C(O)C1O)C[C@]1(C)C2C[C@@H](O)C2C([C@]3(C)CC[C@H](C(C)(C)O)O3)CC[C@]21C (stereo partly drawn) [GS#10, (20S,24R)-6-O-β-D-glucopyranosyl(1→2)-β-D-glucopyranoside-dammar-3-one-20,24-epoxy-6a,12b,25-triol]
0: Average reactivity ([2]; 0.5 wt %) | Average reactivity ([2]; 1 wt %) | Average reactivity ([2]; 3 wt %)
15 ppm: IC50 (ppm), inhibitory effect of tyrosinase activity [4]
0 person: Number of subjects with ±, +, or ++ reactivity ([2]; 0.5 wt %, Eight times, 1st line (±)) | Number of subjects with ±, +, or ++ reactivity ([2]; 0.5 wt %, Eight times, 2nd line (+)) | Number of subjects with ±, +, or ++ reactivity ([2]; 0.5 wt %, Eight times, 3rd line (++)) | Number of subjects with ±, +, or ++ reactivity ([2]; 0.5 wt %, Five times, 1st line (±)) | Number of subjects with ±, +, or ++ reactivity ([2]; 0.5 wt %, Five times, 2nd line (+)) | Number of subjects with ±, +, or ++ reactivity ([2]; 0.5 wt %, Five times, 3rd line (++)) | Number of subjects with ±, +, or ++ reactivity ([2]; 0.5 wt %, Four times, 1st line (±)) | Number of subjects with ±, +, or ++ reactivity ([2]; 0.5 wt %, Four times, 2nd line (+)) | Number of subjects with ±, +, or ++ reactivity ([2]; 0.5 wt %, Four times, 3rd line (++)) | Number of subjects with ±, +, or ++ reactivity ([2]; 0.5 wt %, Nine times, 1st line (±)) | Number of subjects with ±, +, or ++ reactivity ([2]; 0.5 wt %, Nine times, 2nd line (+)) | Number of subjects with ±, +, or ++ reactivity ([2]; 0.5 wt %, Nine times, 3rd line (++)) | Number of subjects with ±, +, or ++ reactivity ([2]; 0.5 wt %, Once, 1st line (±)) | Number of subjects with ±, +, or ++ reactivity ([2]; 0.5 wt %, Once, 2nd line (+)) | Number of subjects with ±, +, or ++ reactivity ([2]; 0.5 wt %, Once, 3rd line (++)) | Number of subjects with ±, +, or ++ reactivity ([2]; 0.5 wt %, Seven times, 1st line (±)) | Number of subjects with ±, +, or ++ reactivity ([2]; 0.5 wt %, Seven times, 2nd line (+)) | Number of subjects with ±, +, or ++ reactivity ([2]; 0.5 wt %, Seven times, 3rd line (++)) | Number of subjects with ±, +, or ++ reactivity ([2]; 0.5 wt %, Six times, 1st line (±)) | Number of subjects with ±, +, or ++ reactivity ([2]; 0.5 wt %, Six times, 2nd line (+)) | Number of subjects with ±, +, or ++ reactivity ([2]; 0.5 wt %, Six times, 3rd line (++)) | Number of subjects with ±, +, or ++ reactivity ([2]; 0.5 wt %, Three times, 1st line (±)) | Number of subjects with ±, +, or ++ reactivity ([2]; 0.5 wt %, Three times, 2nd line (+)) | Number of subjects with ±, +, or ++ reactivity ([2]; 0.5 wt %, Three times, 3rd line (++)) | Number of subjects with ±, +, or ++ reactivity ([2]; 0.5 wt %, twice, 1st line (±)) | Number of subjects with ±, +, or ++ reactivity ([2]; 0.5 wt %, twice, 2nd line (+)) | Number of subjects with ±, +, or ++ reactivity ([2]; 0.5 wt %, twice, 3rd line (++)) | Number of subjects with ±, +, or ++ reactivity ([2]; 1 wt %, Eight times, 1st line (±)) | Number of subjects with ±, +, or ++ reactivity ([2]; 1 wt %, Eight times, 2nd line (+)) | Number of subjects with ±, +, or ++ reactivity ([2]; 1 wt %, Eight times, 3rd line (++)) | Number of subjects with ±, +, or ++ reactivity ([2]; 1 wt %, Five times, 1st line (±)) | Number of subjects with ±, +, or ++ reactivity ([2]; 1 wt %, Five times, 2nd line (+)) | Number of subjects with ±, +, or ++ reactivity ([2]; 1 wt %, Five times, 3rd line (++)) | Number of subjects with ±, +, or ++ reactivity ([2]; 1 wt %, Four times, 1st line (±)) | Number of subjects with ±, +, or ++ reactivity ([2]; 1 wt %, Four times, 2nd line (+)) | Number of subjects with ±, +, or ++ reactivity ([2]; 1 wt %, Four times, 3rd line (++)) | Number of subjects with ±, +, or ++ reactivity ([2]; 1 wt %, Nine times, 1st line (±)) | Number of subjects with ±, +, or ++ reactivity ([2]; 1 wt %, Nine times, 2nd line (+)) | Number of subjects with ±, +, or ++ reactivity ([2]; 1 wt %, Nine times, 3rd line (++)) | Number of subjects with ±, +, or ++ reactivity ([2]; 1 wt %, Once, 1st line (±)) | Number of subjects with ±, +, or ++ reactivity ([2]; 1 wt %, Once, 2nd line (+)) | Number of subjects with ±, +, or ++ reactivity ([2]; 1 wt %, Once, 3rd line (++)) | Number of subjects with ±, +, or ++ reactivity ([2]; 1 wt %, Seven times, 1st line (±)) | Number of subjects with ±, +, or ++ reactivity ([2]; 1 wt %, Seven times, 2nd line (+)) | Number of subjects with ±, +, or ++ reactivity ([2]; 1 wt %, Seven times, 3rd line (++)) | Number of subjects with ±, +, or ++ reactivity ([2]; 1 wt %, Six times, 1st line (±)) | Number of subjects with ±, +, or ++ reactivity ([2]; 1 wt %, Six times, 2nd line (+)) | Number of subjects with ±, +, or ++ reactivity ([2]; 1 wt %, Six times, 3rd line (++)) | Number of subjects with ±, +, or ++ reactivity ([2]; 1 wt %, Three times, 1st line (±)) | Number of subjects with ±, +, or ++ reactivity ([2]; 1 wt %, Three times, 2nd line (+)) | Number of subjects with ±, +, or ++ reactivity ([2]; 1 wt %, Three times, 3rd line (++)) | Number of subjects with ±, +, or ++ reactivity ([2]; 1 wt %, twice, 1st line (±)) | Number of subjects with ±, +, or ++ reactivity ([2]; 1 wt %, twice, 2nd line (+)) | Number of subjects with ±, +, or ++ reactivity ([2]; 1 wt %, twice, 3rd line (++)) | Number of subjects with ±, +, or ++ reactivity ([2]; 3 wt %, Eight times, 1st line (±)) | Number of subjects with ±, +, or ++ reactivity ([2]; 3 wt %, Eight times, 2nd line (+)) | Number of subjects with ±, +, or ++ reactivity ([2]; 3 wt %, Eight times, 3rd line (++)) | Number of subjects with ±, +, or ++ reactivity ([2]; 3 wt %, Five times, 1st line (±)) | Number of subjects with ±, +, or ++ reactivity ([2]; 3 wt %, Five times, 2nd line (+)) | Number of subjects with ±, +, or ++ reactivity ([2]; 3 wt %, Five times, 3rd line (++)) | Number of subjects with ±, +, or ++ reactivity ([2]; 3 wt %, Four times, 1st line (±)) | Number of subjects with ±, +, or ++ reactivity ([2]; 3 wt %, Four times, 2nd line (+)) | Number of subjects with ±, +, or ++ reactivity ([2]; 3 wt %, Four times, 3rd line (++)) | Number of subjects with ±, +, or ++ reactivity ([2]; 3 wt %, Nine times, 1st line (±)) | Number of subjects with ±, +, or ++ reactivity ([2]; 3 wt %, Nine times, 2nd line (+)) | Number of subjects with ±, +, or ++ reactivity ([2]; 3 wt %, Nine times, 3rd line (++)) | Number of subjects with ±, +, or ++ reactivity ([2]; 3 wt %, Once, 1st line (±)) | Number of subjects with ±, +, or ++ reactivity ([2]; 3 wt %, Once, 2nd line (+)) | Number of subjects with ±, +, or ++ reactivity ([2]; 3 wt %, Once, 3rd line (++)) | Number of subjects with ±, +, or ++ reactivity ([2]; 3 wt %, Seven times, 1st line (±)) | Number of subjects with ±, +, or ++ reactivity ([2]; 3 wt %, Seven times, 2nd line (+)) | Number of subjects with ±, +, or ++ reactivity ([2]; 3 wt %, Seven times, 3rd line (++)) | Number of subjects with ±, +, or ++ reactivity ([2]; 3 wt %, Six times, 1st line (±)) | Number of subjects with ±, +, or ++ reactivity ([2]; 3 wt %, Six times, 2nd line (+)) | Number of subjects with ±, +, or ++ reactivity ([2]; 3 wt %, Six times, 3rd line (++)) | Number of subjects with ±, +, or ++ reactivity ([2]; 3 wt %, Three times, 1st line (±)) | Number of subjects with ±, +, or ++ reactivity ([2]; 3 wt %, Three times, 2nd line (+)) | Number of subjects with ±, +, or ++ reactivity ([2]; 3 wt %, Three times, 3rd line (++)) | Number of subjects with ±, +, or ++ reactivity ([2]; 3 wt %, twice, 1st line (±)) | Number of subjects with ±, +, or ++ reactivity ([2]; 3 wt %, twice, 2nd line (+)) | Number of subjects with ±, +, or ++ reactivity ([2]; 3 wt %, twice, 3rd line (++))
did not exhibit cytotoxicity: cytotoxicity (cell viability) [3]
−: reactivity (skin response, ICDRG criteria) ([2]; all content range (0.5 wt %, 1 wt %, 3 wt %), nine patches in three weeks)
22 ppm: IC50 (ppm), concentration required to reduce melanin production in melanocytes by half [1]
